Data on 33 compounds can be found in patent publication US8901313B2, “6,5-heterocyclic propargylic alcohol compounds and uses therefor” (Genentech, Inc., priority 2011, dated 2014).

Usually Ki stands for the equilibrium dissociation constant of an inhibitor or competing ligand from its target.

For the test, the target named is T1, nuclear factor-kappa B (NF-kB)-inducing kinase (NIK) (Homo sapiens, UniProt Q99558).
T1 construct: made in house; host or cells: baculovirus-infected insect cells
T1 sequence (Q99558 whole entry): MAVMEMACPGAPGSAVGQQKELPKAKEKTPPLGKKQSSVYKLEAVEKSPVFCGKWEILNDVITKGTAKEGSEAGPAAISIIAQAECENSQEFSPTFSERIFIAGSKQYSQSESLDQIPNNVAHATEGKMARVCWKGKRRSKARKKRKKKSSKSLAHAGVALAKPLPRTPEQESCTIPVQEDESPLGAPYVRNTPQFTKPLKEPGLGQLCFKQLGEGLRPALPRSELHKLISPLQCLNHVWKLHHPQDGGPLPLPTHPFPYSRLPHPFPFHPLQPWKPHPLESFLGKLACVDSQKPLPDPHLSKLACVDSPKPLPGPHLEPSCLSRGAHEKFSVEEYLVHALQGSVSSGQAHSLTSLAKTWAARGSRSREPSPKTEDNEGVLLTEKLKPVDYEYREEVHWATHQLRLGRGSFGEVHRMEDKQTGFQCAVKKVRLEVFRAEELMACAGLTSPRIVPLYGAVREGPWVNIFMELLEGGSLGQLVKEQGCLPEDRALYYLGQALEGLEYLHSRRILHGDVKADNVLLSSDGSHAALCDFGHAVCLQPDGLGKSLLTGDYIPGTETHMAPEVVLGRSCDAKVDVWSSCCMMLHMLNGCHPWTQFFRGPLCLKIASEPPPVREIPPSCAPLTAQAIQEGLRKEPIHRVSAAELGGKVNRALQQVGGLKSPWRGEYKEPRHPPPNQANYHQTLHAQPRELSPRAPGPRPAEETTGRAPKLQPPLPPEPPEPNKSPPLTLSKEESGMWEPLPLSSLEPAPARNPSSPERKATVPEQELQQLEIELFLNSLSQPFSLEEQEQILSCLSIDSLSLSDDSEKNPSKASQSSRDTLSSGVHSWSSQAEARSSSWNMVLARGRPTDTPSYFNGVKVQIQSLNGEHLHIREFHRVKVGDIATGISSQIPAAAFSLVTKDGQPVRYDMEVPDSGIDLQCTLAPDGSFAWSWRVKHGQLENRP
In words: NIK Enzyme Inhibition Assay (Transcreener ADP assay). Type of test: biochemical. Particulars: purified NIK 0.2-1 nM, 10 uM ATP, fluorescence polarization, Morrison's quadratic equation; read-out: inhibitory value (Ki) for NIK. Background: In fluorescence polarisation assays a small probe gives low polarisation when free and higher when bound to something large.
As for `CC(O)(C#Cc1ccc2c(C(=O)N3CC(F)(F)C3)nn(-c3ccnc(N)n3)c2c1)c1ncccn1` (stereo not drawn) [Example T1.1-139, [1-(2-aminopyrimidin-4-yl)-6-(3-hydroxy-3-pyrimidin-2-yl-but-1-ynyl)indazol-3-yl]-(3,3-difluoroazetidin-1-yl)methanone], the Ki is 20 nM. Then `CC(O)(C#Cc1ccc2c(C(=O)Nc3cccnc3)nn(-c3ccnc(N)n3)c2c1)c1ncccn1` (stereo not drawn) [Example T1.1-143, 1-(2-aminopyrimidin-4-yl)-6-(3-hydroxy-3-pyrimidin-2-yl-but-1-ynyl)-N-(3-pyridyl) indazole-3-carboxamide], with 2 nM.

Take `Cc1nn(-c2ccnc(N)n2)c2cc(C#CC3(O)CCN(C)C3=O)ccc12` (stereo not drawn) [Example T1.1-16, 3-[2-[1-(2-aminopyrimidin-4-yl)-3-methyl-indazol-6-yl]ethynyl]-3-hydroxy-1-methyl-pyrrolidin-2-one]: the Ki was 1 nM. Take `COCCNc1nc2ccc(C#CC(C)(O)c3nc(C)cs3)cc2n1-c1ccnc(N)n1` (stereo not drawn) [Example T1.1-131, 4-[3-(2-aminopyrimidin-4-yl)-2-(2-methoxyethylamino)benzimidazol-5-yl]-2-(4-methylthiazol-2-yl)but-3-yn-2-ol]: the Ki amounted to 9 nM.

With `Cc1nc2ccc(C#CC(C)(O)Cn3cccn3)cc2n1-c1ncnc(N)n1` (stereo not drawn) [Example T1.1-126, 4-[3-(4-amino-1,3,5-triazin-2-yl)-2-methyl-benzimidazol-5-yl]-2-methyl-1-pyrazol-1-yl-but-3-yn-2-ol], the Ki was at least 5000 nM. Then `Cc1nc2ccc(C#CC(C)(O)c3ncccn3)cc2n1-c1ncnc(N)n1` (stereo not drawn) [Example T1.1-62, 4-[3-(4-amino-1,3,5-triazin-2-yl)-2-methyl-benzimidazol-5-yl]-2-pyrimidin-2-yl-but-3-yn-2-ol], with 6 nM. Then `Nc1nccc(-n2ncc3c(F)cc(C#CC4(O)CCCC4)cc32)n1` [Example T1.1-120, 1-[2-[1-(2-aminopyrimidin-4-yl)-4-fluoro-indazol-6-yl]ethynyl] cyclopentanol], with at least 5000 nM; and `CC(C)(O)c1nn(-c2ccnc(N)n2)c2cc(C#CC3(O)CCc4cccnc43)ccc12` (stereo not drawn) [Example T1.1-67, 7-[2-[1-(2-aminopyrimidin-4-yl)-3-(1-hydroxy-1-methyl-ethyl)indazol-6-yl]ethynyl]-5,6-dihydrocyclopenta[b] pyridin-7-ol], with 8 nM; and `Cc1nc([C@](C)(O)C#Cc2ccc3c(c2)n(-c2ccnc(N)n2)c(=O)n3C)no1` [Example T1.1-31, 3-(2-aminopyrimidin-4-yl)-5-[(3R)-3-hydroxy-3-(5-methyl-1,2,4-oxadiazol-3-yl)but-1-ynyl]-1-methyl-benzimidazol-2-one], with 2 nM. Then `Cc1nn(-c2ccnc(N)n2)c2cc(C#CC(C)(O)CF)ccc12` (stereo not drawn) [Example T1.1-52, 4-[1-(2-aminopyrimidin-4-yl)-3-methyl-indazol-6-yl]-1-fluoro-2-methyl-but-3-yn-2-ol], with 4 nM; and `Cc1nc([C@](C)(O)C#Cc2ccc3c(CO)nn(-c4ccnc(N)n4)c3c2)no1` [Example T1.1-40, (2R)-4-[1-(2-aminopyrimidin-4-yl)-3-(hydroxymethyl)indazol-6-yl]-2-(5-methyl-1,2,4-oxadiazol-3-yl)but-3-yn-2-ol], with 2 nM. For `CC(O)(C#Cc1ccc2c(C(=O)NC3COC3)nn(-c3ccnc(N)n3)c2c1)c1ncccn1` (stereo not drawn) [Example T1.1-148, 1-(2-aminopyrimidin-4-yl)-6-(3-hydroxy-3-pyrimidin-2-yl-but-1-ynyl)-N-(oxetan-3-yl)indazole-3-carboxamide], the Ki came to 0.1 nM. Then `Cc1nc2ccc(C#CC3(CO)CCCC3)cc2n1-c1ncnc(N)n1` [Example T1.1-107, [1-[2-[3-(4-amino-1,3,5-triazin-2-yl)-2-methyl-benzimidazol-5-yl]ethynyl]cyclopentyl]methanol], with 913 nM; and `Cc1nn(-c2ccnc(N)n2)c2cc(C#CC(C)(O)c3c[nH]cn3)ccc12` (stereo not drawn) [Example T1.1-12, 4-[1-(2-aminopyrimidin-4-yl)-3-methyl-indazol-6-yl]-2-(1H-imidazol-4-yl)but-3-yn-2-ol], with 0.6 nM. In the case of `Cc1cc(C(C)(O)C#Cc2ccc3c(C(C)(O)C4CC4)nn(-c4ccnc(N)n4)c3c2)no1` (stereo not drawn) [Example T1.1-6, 4-[1-(2-aminopyrimidin-4-yl)-3-(1-cyclopropyl-1-hydroxy-ethyl)indazol-6-yl]-2-(5-methylisoxazol-3-yl)but-3-yn-2-ol] it was 0.32 nM; in that of `Cc1nc([C@](C)(O)C#Cc2ccc3c(C(=O)N4CC(O)C4)nn(-c4nc(N)ncc4Cl)c3c2)no1` [Example T1.1-23, [1-(2-amino-5-chloro-pyrimidin-4-yl)-6-[(3R)-3-hydroxy-3-(5-methyl-1,2,4-oxadiazol-3-yl)but-1-ynyl]indazol-3-yl]-(3-hydroxy-azetidin-1-yl)methanone], 1 nM; in that of `Cc1cc(C(C)(O)C#Cc2ccc3c(c2)n(-c2ccnc(N)n2)c(=O)n3CC2CC2)no1` (stereo not drawn) [Example T1.1-32, 3-(2-aminopyrimidin-4-yl)-1-(cyclopropylmethyl)-5-[3-hydroxy-3-(5-methylisoxazol-3-yl)but-1-ynyl] benzimidazol-2-one], 2 nM. For `CC(O)(C#Cc1ccc2nc(OCCO)n(-c3ccnc(N)n3)c2c1)c1ncccn1` (stereo not drawn) [Example T1.1-60, 4-[3-(2-aminopyrimidin-4-yl)-2-(2-hydroxyethoxy)benzimidazol-5-yl]-2-pyrimidin-2-yl-but-3-yn-2-ol], the Ki was 6 nM. In the case of `Cc1nn(-c2ccnc(N)n2)c2cc(C#CC(C)(O)c3cc[nH]n3)ccc12` (stereo not drawn) [Example T1.1-73, 4-[1-(2-aminopyrimidin-4-yl)-3-methyl-indazol-6-yl]-2-(1H-pyrazol-3-yl)but-3-yn-2-ol] it was 12 nM; in that of `CC(O)(C#Cc1ccc2c(C(=O)N3CCOCC3)nn(-c3ccnc(N)n3)c2c1)c1ncco1` (stereo not drawn) [Example T1.1-144, [1-(2-aminopyrimidin-4-yl)-6-(3-hydroxy-3-oxazol-2-yl-but-1-ynyl)indazol-3-yl]-morpholino-methanone], 3 nM; in that of `CC(C)(O)C#Cc1ccc2nc(OC3COC3)n(-c3ccnc(N)n3)c2c1` [Example T1.1-96, 4-[3-(2-aminopyrimidin-4-yl)-2-(oxetan-3-yloxy)benzimidazol-5-yl]-2-methyl-but-3-yn-2-ol], 100 nM. In the case of `Cc1cc([C@](C)(O)C#Cc2ccc3c(C(N)=O)nn(-c4ccnc(N)n4)c3c2)no1` [Example T1.1-20, 1-(2-aminopyrimidin-4-yl)-6-[(3R)-3-hydroxy-3-(5-methyl-isoxazol-3-yl)but-1-ynyl] indazole-3-carboxamide] it was 1 nM; in that of `CC1CN(C(=O)c2nn(-c3ccnc(N)n3)c3cc(C#CC(C)(O)c4ncccn4)ccc23)CC(C)O1` (stereo not drawn) [Example T1.1-69, [1-(2-aminopyrimidin-4-yl)-6-(3-hydroxy-3-pyrimidin-2-yl-but-1-ynyl)indazol-3-yl]-(2,6-dimethylmorpholin-4-yl) methanone], 9 nM; in that of `Cc1cc([C@](C)(O)C#Cc2ccc3nc(OC4COC4)n(-c4ccnc(N)n4)c3c2)no1` [Example T1.1-25, (2R)-4-[3-(2-aminopyrimidin-4-yl)-2-(oxetan-3-yloxy)benzimidazol-5-yl]-2-(5-methylisoxazol-3-yl) but-3-yn-2-ol], 1 nM. In the case of `Cc1nnc(C(C)(O)C#Cc2ccc3c(C(=O)N4CCOCC4)nn(-c4ccnc(N)n4)c3c2)o1` (stereo not drawn) [Example T1.1-137, [1-(2-aminopyrimidin-4-yl)-6-[3-hydroxy-3-(5-methyl-1,3,4-oxadiazol-2-yl)but-1-ynyl]indazol-3-yl]-morpholino-methanone], the Ki stood at 7 nM. In the case of `Cc1cc([C@](C)(O)C#Cc2ccc3c(CN4CCOCC4)nn(-c4ccnc(N)n4)c3c2)no1` [Example T1.1-38, (2R)-4-[1-(2-aminopyrimidin-4-yl)-3-(morpholinomethyl)indazol-6-yl]-2-(5-methylisoxazol-3-yl)but-3-yn-2-ol] it was 2 nM; in that of `Cc1nn(-c2ccnc(N)n2)c2cc(C#CC(C)(O)c3cc(CO)on3)ccc12` (stereo not drawn) [Example T1.1-33, 4-[1-(2-aminopyrimidin-4-yl)-3-methyl-indazol-6-yl]-2-[5-(hydroxy-methyl)isoxazol-3-yl]but-3-yn-2-ol], 2 nM. Then `Cc1nn(-c2ccnc(N)n2)c2cc(C#CC(C)(O)c3nccn3C)ccc12` (stereo not drawn) [Example T1.1-90, 4-[1-(2-aminopyrimidin-4-yl)-3-methyl-indazol-6-yl]-2-(1-methyl-imidazol-2-yl)but-3-yn-2-ol], with 54 nM; and `Cc1cc(C(C)(O)C#Cc2ccc3c(C(NC4CCCC4)C4CC4)nn(-c4ccnc(N)n4)c3c2)no1` (stereo not drawn) [Example T1.1-79, 4-[1-(2-aminopyrimidin-4-yl)-3-[(cyclopentylamino)-cyclopropyl-methyl]indazol-6-yl]-2-(5-methyl-isoxazol-3-yl)but-3-yn-2-ol], with 20 nM; and `Cc1noc(C(C)(O)C#Cc2ccc3c(C(=O)N(C)C)nn(-c4ccnc(N)n4)c3c2)n1` (stereo not drawn) [Example T1.1-82, 1-(2-aminopyrimidin-4-yl)-6-[3-hydroxy-3-(3-methyl-1,2,4-oxadiazol-5-yl)but-1-ynyl]-N,N-dimethyl-indazole-3-carboxamide], with 25 nM. As to `CN1CCN(C(=O)c2nn(-c3ccnc(N)n3)c3cc(C#CC(C)(O)c4ncccn4)ccc23)CC1` (stereo not drawn) [Example T1.1-89, [1-(2-aminopyrimidin-4-yl)-6-(3-hydroxy-3-pyrimidin-2-yl-but-1-ynyl)indazol-3-yl]-(4-methylpiperazin-1-yl)methanone], the Ki amounted to 52 nM. Then `Cc1nn(-c2ccnc(N)n2)c2cc(C#CC(C)(O)c3nc[nH]n3)ccc12` (stereo not drawn) [Example T1.1-45, 4-[1-(2-aminopyrimidin-4-yl)-3-methyl-indazol-6-yl]-2-(1H-1,2,4-triazol-3-yl)but-3-yn-2-ol], with 3 nM.

On to `Cc1cc(C(C)(O)C#Cc2ccc3nc(OCCO)n(-c4ccnc(N)n4)c3c2)no1` (stereo not drawn) [Example T1.1-27, 4-[3-(2-aminopyrimidin-4-yl)-2-(2-hydroxyethoxy)benzimidazol-5-yl]-2-(5-methylisoxazol-3-yl)but-3-yn-2-ol], for which the Ki was 2 nM.
